Reference: PubChem BioAssay AID328 (DTP/NCI, 2004)
Several values for one entry are separate records, joined by “and”; a condition that tells them apart may be missing. Equal values may be shown once. Inconclusive results and toxic doses are left out.

Tested on: BDF1 mice, P388 leukemia ip, median survival T/C
Test: NCI In Vivo Anticancer Drug Screen. Data for tumor model P388 Leukemia (intraperitoneal) in B6D2F1 (BDF1) mice
Conditions: endpoint: median survival time, higher = longer survival
Summary of the method: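 Survival ratio, drug arm over vehicle arm, in mice with a transplanted tumour.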

[1] = dose: 12.5 mg/kg/injection, schedule: Q01DX009 (ip), vehicle: Klucel (hydroxypropylcellulose) (HPC)
[2] = dose: 25.0 mg/kg/injection, schedule: Q01DX009 (ip), vehicle: Klucel (hydroxypropylcellulose) (HPC)
[3] = dose: 50.0 mg/kg/injection, schedule: Q01DX009 (ip), vehicle: Klucel (hydroxypropylcellulose) (HPC)
[4] = dose: 100.0 mg/kg/injection, schedule: Q01DX009 (ip), vehicle: Klucel (hydroxypropylcellulose) (HPC)
[5] = dose: 50.0 mg/kg/injection, schedule: Q01DX009 (ip), vehicle: saline with Tween-80
[6] = dose: 200.0 mg/kg/injection, schedule: Q04DX003 (ip), vehicle: saline with Tween-80
[7] = dose: 100.0 mg/kg/injection, schedule: Q01DX009 (ip), vehicle: saline with Tween-80
[8] = dose: 100.0 mg/kg/injection, schedule: Q04DX003 (ip), vehicle: saline with Tween-80
[9] = dose: 400.0 mg/kg/injection, schedule: Q01DX009 (ip), vehicle: saline with Tween-80
[10] = dose: 100.0 mg/kg/injection, schedule: Q04DX003 (ip), vehicle: Klucel (hydroxypropylcellulose) (HPC)
[11] = dose: 200.0 mg/kg/injection, schedule: Q01DX009 (ip), vehicle: Klucel (hydroxypropylcellulose) (HPC)
[12] = dose: 200.0 mg/kg/injection, schedule: Q04DX003 (ip), vehicle: Klucel (hydroxypropylcellulose) (HPC)
[13] = dose: 400.0 mg/kg/injection, schedule: Q04DX003 (ip), vehicle: Klucel (hydroxypropylcellulose) (HPC)
[14] = dose: 400.0 mg/kg/injection, schedule: Q01DX009 (ip), vehicle: Klucel (hydroxypropylcellulose) (HPC)

O=C(O)c1[nH]c(=O)[nH]c(=O)c1F
T/C (dose: 2.5 mg/kg/injection, schedule: Q01DX010 (ip), vehicle: saline): 152 % of control | T/C (dose: 10.0 mg/kg/injection, schedule: Q01DX010 (ip), vehicle: saline): 166 % of control

O=C1CN(C2CCCCC2)CC(=O)N2C(c3ccccc3)CCCN12 (stereo not given)
T/C (dose: 50.0 mg/kg/injection, schedule: Q01DX005 (ip), vehicle: saline with Tween-80): 97 % of control | T/C (dose: 100.0 mg/kg/injection, schedule: Q01DX005 (ip), vehicle: saline with Tween-80): 103 % of control | T/C (dose: 200.0 mg/kg/injection, schedule: Q01DX005 (ip), vehicle: saline with Tween-80): 118 % of control

CCNc1nc(Cl)nc(-c2cn(-c3ccccc3)c3ccccc23)n1
T/C [1]: 100 % of control | T/C [2]: 91 % of control | T/C [3]: 86 % of control | T/C [4]: 91 % of control

COc1cc([C@@H]2c3cc4c(cc3[C@H](OC(C)=O)[C@H]3COC(=O)[C@@H]23)OCO4)cc(OC)c1OC
T/C (dose: 25.0 mg/kg/injection, schedule: Q01DX010 (ip), vehicle: carboxymethylcellulose (CMC)): 123 % of control | T/C [5]: 172 % of control | T/C (dose: 50.0 mg/kg/injection, schedule: Q01DX010 (ip), vehicle: carboxymethylcellulose (CMC)): 95 % of control | T/C (dose: 50.0 mg/kg/injection, schedule: Q04DX003 (ip), vehicle: saline sonified): 100 % of control | T/C (dose: 66.0 mg/kg/injection, schedule: Q04DX003 (ip), vehicle: saline sonified): 88 % of control | T/C (dose: 88.0 mg/kg/injection, schedule: Q04DX003 (ip), vehicle: saline with Tween-80): 113 % of control | T/C (dose: 100.0 mg/kg/injection, schedule: Q04DX003 (ip), vehicle: saline sonified): 100 % of control | T/C (dose: 132.0 mg/kg/injection, schedule: Q04DX003 (ip), vehicle: saline with Tween-80): 150 % of control | T/C (dose: 150.0 mg/kg/injection, schedule: Q04DX003 (ip), vehicle: saline sonified): 100 % of control | T/C (dose: 200.0 mg/kg/injection, schedule: Q04DX003 (ip), vehicle: saline sonified): 170 % of control | T/C [6]: 160 % of control

CS(=O)(=O)N(c1ccccc1[N+](=O)[O-])S(C)(=O)=O
T/C [7]: 109 % of control | T/C [8]: 87 % of control | T/C (dose: 200.0 mg/kg/injection, schedule: Q01DX009 (ip), vehicle: saline with Tween-80): 100 % of control | T/C [6]: 100 % of control | T/C [9]: 104 % of control | T/C (dose: 400.0 mg/kg/injection, schedule: Q04DX003 (ip), vehicle: saline with Tween-80): 104 % of control

COC(=O)C(C(=O)OC)=C1CS(=O)(=O)C1
T/C (dose: 100.0 mg/kg/injection, schedule: Q04DX002 (ip), vehicle: saline with Tween-80): 94 % of control | T/C (dose: 200.0 mg/kg/injection, schedule: Q04DX002 (ip), vehicle: saline with Tween-80): 101 % of control | T/C (dose: 400.0 mg/kg/injection, schedule: Q04DX002 (ip), vehicle: saline with Tween-80): 102 % of control

BrCc1cc2ccccc2cc1CBr
T/C (dose: 25.0 mg/kg/injection, schedule: Q04DX003 (ip), vehicle: saline): 116 % of control

COC(=O)c1ccc(C(=O)O)[n+]([O-])c1
T/C [2]: 96 % of control | T/C (dose: 25.0 mg/kg/injection, schedule: Q04DX003 (ip), vehicle: Klucel (hydroxypropylcellulose) (HPC)): 100 % of control | T/C (dose: 50.0 mg/kg/injection, schedule: Q04DX003 (ip), vehicle: Klucel (hydroxypropylcellulose) (HPC)): 104 % of control | T/C [4]: 88 % of control | T/C [10]: 113 % of control | T/C [11]: 89 % of control | T/C [12]: 95 % of control | T/C [13]: 87 % of control

COC1=C(C2(O)C(=O)N(C)c3ccccc32)C(=O)C(OC)=C(C2(O)C(=O)N(C)c3ccccc32)C1=O (stereo not given)
T/C (dose: 100.0 mg/kg/injection, schedule: Q01DX001 (ip), vehicle: saline with Tween-80): 91 % of control | T/C (dose: 200.0 mg/kg/injection, schedule: Q01DX001 (ip), vehicle: saline with Tween-80): 89 % of control | T/C (dose: 400.0 mg/kg/injection, schedule: Q01DX001 (ip), vehicle: saline with Tween-80): 90 % of control

Cc1cc(NC(=O)Nc2ccc(C3=NCCN3)cc2)ccc1NC(=O)Nc1ccc(C2=NCCN2)cc1
T/C [7]: 122 % of control | T/C [9]: 159 % of control

O=C(Nc1ccc2ccccc2c1)c1ccc(Cl)cc1Cl
T/C (dose: 75.0 mg/kg/injection, schedule: Q01DX001 (ip), vehicle: saline with Tween-80): 95 % of control | T/C (dose: 150.0 mg/kg/injection, schedule: Q01DX001 (ip), vehicle: saline with Tween-80): 86 % of control | T/C (dose: 300.0 mg/kg/injection, schedule: Q01DX001 (ip), vehicle: saline with Tween-80): 90 % of control

O=CC(C=O)[N+](=O)[O-]
T/C [4]: 91 % of control | T/C [11]: 95 % of control | T/C [14]: 108 % of control

CN(C)P1(=O)OCCN1N (stereo not given)
T/C (dose: 50.0 mg/kg/injection, schedule: Q04DX003 (ip), vehicle: saline): 109 % of control | T/C (dose: 100.0 mg/kg/injection, schedule: Q04DX003 (ip), vehicle: saline): 109 % of control | T/C (dose: 200.0 mg/kg/injection, schedule: Q04DX003 (ip), vehicle: saline): 104 % of control

CN1CCN(c2cc3c(cc2[N+](=O)[O-])no[n+]3[O-])CC1
T/C (dose: 15.0 mg/kg/injection, schedule: Q01DX009 (ip), vehicle: saline with Tween-80): 123 % of control | T/C (dose: 30.0 mg/kg/injection, schedule: Q01DX009 (ip), vehicle: saline with Tween-80): 120 % of control | T/C (dose: 60.0 mg/kg/injection, schedule: Q01DX009 (ip), vehicle: saline with Tween-80): 103 % of control

O=[N+]([O-])c1ccc(N2CCN(c3ccc([N+](=O)[O-])c4c3no[n+]4[O-])CC2)c2c1no[n+]2[O-]
T/C (dose: 15.0 mg/kg/injection, schedule: Q04DX003 (ip), vehicle: saline with Tween-80): 111 % of control | T/C (dose: 30.0 mg/kg/injection, schedule: Q04DX003 (ip), vehicle: saline with Tween-80): 106 % of control | T/C (dose: 60.0 mg/kg/injection, schedule: Q04DX003 (ip), vehicle: saline with Tween-80): 101 % of control

O=C(Nc1ccc(CCNC2=NCCN2)cc1)c1ccc(C(=O)Nc2ccc(CCNC3=NCCN3)cc2)cc1
T/C (dose: 1.0 mg/kg/injection, schedule: Q01DX009 (ip), vehicle: saline): 106 % of control | T/C (dose: 2.0 mg/kg/injection, schedule: Q01DX009 (ip), vehicle: saline): 106 % of control | T/C (dose: 8.2 mg/kg/injection, schedule: Q01DX009 (ip), vehicle: saline): 199 % of control | T/C (dose: 12.5 mg/kg/injection, schedule: Q01DX009 (ip), vehicle: saline): 226 % of control and 254 % of control | T/C (dose: 18.0 mg/kg/injection, schedule: Q01DX009 (ip), vehicle: saline): 226 % of control | T/C (dose: 25.0 mg/kg/injection, schedule: Q01DX009 (ip), vehicle: saline): 156 % of control | T/C (dose: 50.0 mg/kg/injection, schedule: Q01DX009 (ip), vehicle: saline): 122 % of control

CCCCCCCCCCCC(=O)CCC
T/C (dose: 100.0 mg/kg/injection, schedule: Q04DX003 (ip), vehicle: other): 100 % of control | T/C (dose: 200.0 mg/kg/injection, schedule: Q04DX003 (ip), vehicle: other): 91 % of control and 100 % of control | T/C (dose: 400.0 mg/kg/injection, schedule: Q04DX003 (ip), vehicle: other): 91 % of control and 100 % of control

Cc1c(Br)c(=O)n(-c2ccccc2)n1C
T/C [1]: 106 % of control | T/C [2]: 98 % of control | T/C [3]: 100 % of control and 106 % of control | T/C [4]: 106 % of control

CCCCCCCCCCCCCCCCn1/c(=N/N=C/c2ccccc2S(=O)(=O)O)sc2ccccc21
T/C [10]: 104 % of control | T/C [11]: 95 % of control | T/C [12]: 118 % of control | T/C [14]: 95 % of control | T/C [13]: 95 % of control

CC(=O)Nc1nc(Cl)c([N+](=O)[O-])c(SCc2ccccc2)n1
T/C (dose: 12.5 mg/kg/injection, schedule: Q01DX009 (ip), vehicle: saline with Tween-80): 94 % of control | T/C (dose: 25.0 mg/kg/injection, schedule: Q01DX009 (ip), vehicle: saline with Tween-80): 98 % of control | T/C (dose: 25.0 mg/kg/injection, schedule: Q04DX003 (ip), vehicle: saline with Tween-80): 116 % of control | T/C [5]: 107 % of control | T/C (dose: 50.0 mg/kg/injection, schedule: Q04DX003 (ip), vehicle: saline with Tween-80): 114 % of control | T/C [7]: 96 % of control | T/C [8]: 114 % of control | T/C [6]: 96 % of control
